Experimental data published in patent US4400199A, “Thiolcarbamate compounds and their use as herbicides” (priority 1981, dated 1983).

Tested on: barnyard grass (Echinochloa crus-galli)
Assay: Experiment 1: herbicidal effects against barnyard grass (pot test, emulsifiable concentrate)
Type: in vivo
Details: 1.5 leaf-stage of barnyard grass; 150 g/10a.; 25 days

Structure (SMILES)	herbicidal activity (barnyard grass)
CC1CCCCN1C(=O)SCCCCCCCCCl (stereo not drawn) [Compound 4, S-(8-chlorooctyl)-(2-methyl)-piperidine-1-carbothioate]	5 (more than 90%)
CC1CCC(C)CN(C(=O)SCCCCCCCl)C1 (stereo not drawn) [Compound 8, S-(6-chlorohexyl)-3,6-dimethyl-hexahydro-1H-azepine-1-carbothioate]	5 (more than 90%)

Same assay, conditions: 1.5 leaf-stage of barnyard grass; 300 g/10a.; 25 days

Structure (SMILES)	herbicidal activity (barnyard grass)
CC1CCCCN1C(=O)SCCCCCCCCCl (stereo not drawn) [Compound 4, S-(8-chlorooctyl)-(2-methyl)-piperidine-1-carbothioate]	5 (more than 90%)
CC1CCCCN1C(=O)SCCCCCCCCCCCl (stereo not drawn) [Compound 5, S-(10-chlorodecyl)-(2-methyl)-piperidine-1-carbothioate]	5 (more than 90%)
CC1CCC(C)CN(C(=O)SCCCCCCCl)C1 (stereo not drawn) [Compound 8, S-(6-chlorohexyl)-3,6-dimethyl-hexahydro-1H-azepine-1-carbothioate]	5 (more than 90%)

Same assay, conditions: 1.5 leaf-stage of barnyard grass; 600 g/10a.; 25 days

Structure (SMILES)	herbicidal activity (barnyard grass)
CC1CCCCN1C(=O)SCCCCCCCCCl (stereo not drawn) [Compound 4, S-(8-chlorooctyl)-(2-methyl)-piperidine-1-carbothioate]	5 (more than 90%)
CC1CCCCN1C(=O)SCCCCCCCCCCCl (stereo not drawn) [Compound 5, S-(10-chlorodecyl)-(2-methyl)-piperidine-1-carbothioate]	5 (more than 90%)
CC1CCC(C)CN(C(=O)SCCCCCCCl)C1 (stereo not drawn) [Compound 8, S-(6-chlorohexyl)-3,6-dimethyl-hexahydro-1H-azepine-1-carbothioate]	5 (more than 90%)

Same assay, conditions: 3 leaf-stage of barnyard grass; 150 g/10a.; 25 days

Structure (SMILES)	herbicidal activity (barnyard grass)
CC1CCCCN1C(=O)SCCCCCCCCCl (stereo not drawn) [Compound 4, S-(8-chlorooctyl)-(2-methyl)-piperidine-1-carbothioate]	4 (70 to 89%)
CC1CCC(C)CN(C(=O)SCCCCCCCl)C1 (stereo not drawn) [Compound 8, S-(6-chlorohexyl)-3,6-dimethyl-hexahydro-1H-azepine-1-carbothioate]	5 (more than 90%)

Same assay, conditions: 3 leaf-stage of barnyard grass; 300 g/10a.; 25 days

Structure (SMILES)	herbicidal activity (barnyard grass)
CC1CCCCN1C(=O)SCCCCCCCCCl (stereo not drawn) [Compound 4, S-(8-chlorooctyl)-(2-methyl)-piperidine-1-carbothioate]	5 (more than 90%)
CC1CCCCN1C(=O)SCCCCCCCCCCCl (stereo not drawn) [Compound 5, S-(10-chlorodecyl)-(2-methyl)-piperidine-1-carbothioate]	4 (70 to 89%)
CC1CCC(C)CN(C(=O)SCCCCCCCl)C1 (stereo not drawn) [Compound 8, S-(6-chlorohexyl)-3,6-dimethyl-hexahydro-1H-azepine-1-carbothioate]	5 (more than 90%)

Same assay, conditions: 3 leaf-stage of barnyard grass; 600 g/10a.; 25 days

Structure (SMILES)	herbicidal activity (barnyard grass)
CC1CCCCN1C(=O)SCCCCCCCCCl (stereo not drawn) [Compound 4, S-(8-chlorooctyl)-(2-methyl)-piperidine-1-carbothioate]	5 (more than 90%)
CC1CCCCN1C(=O)SCCCCCCCCCCCl (stereo not drawn) [Compound 5, S-(10-chlorodecyl)-(2-methyl)-piperidine-1-carbothioate]	5 (more than 90%)
CC1CCC(C)CN(C(=O)SCCCCCCCl)C1 (stereo not drawn) [Compound 8, S-(6-chlorohexyl)-3,6-dimethyl-hexahydro-1H-azepine-1-carbothioate]	5 (more than 90%)

Tested on: barnyard grass
Assay: Experiment 2: herbicidal effects against barnyard grass (pot test, granules)
Type: in vivo, Echinochloa crus-galli
Details: 150 g/10a., 2.5 leaf-stage, 25 days

Structure (SMILES)	herbicidal activity (barnyard grass)
CC1CCCCN1C(=O)SCCCCCCCCCl (stereo not drawn) [Compound 4, S-(8-chlorooctyl)-(2-methyl)-piperidine-1-carbothioate]	4 (70 to 89%)

Same assay, conditions: 300 g/10a., 2.5 leaf-stage, 25 days

Structure (SMILES)	herbicidal activity (barnyard grass)
CC1CCCCN1C(=O)SCCCCCCCCCl (stereo not drawn) [Compound 4, S-(8-chlorooctyl)-(2-methyl)-piperidine-1-carbothioate]	5 (more than 90%)
CC1CCCCN1C(=O)SCCCCCCCCCCCl (stereo not drawn) [Compound 5, S-(10-chlorodecyl)-(2-methyl)-piperidine-1-carbothioate]	5 (more than 90%)

Same assay, conditions: 600 g/10a., 2.5 leaf-stage, 25 days

Structure (SMILES)	herbicidal activity (barnyard grass)
CC1CCCCN1C(=O)SCCCCCCCCCl (stereo not drawn) [Compound 4, S-(8-chlorooctyl)-(2-methyl)-piperidine-1-carbothioate]	5 (more than 90%)
CC1CCCCN1C(=O)SCCCCCCCCCCCl (stereo not drawn) [Compound 5, S-(10-chlorodecyl)-(2-methyl)-piperidine-1-carbothioate]	5 (more than 90%)

Tested on: broad-leaf weeds
Assay: Experiment 2: herbicidal effects against broad-leaf weeds (pot test, granules)
Type: in vivo
Details: 150 g/10a., 25 days

Structure (SMILES)	Herbicidal activity broad-leaf weeds
CC1CCCCN1C(=O)SCCCCCCCCCl (stereo not drawn) [Compound 4, S-(8-chlorooctyl)-(2-methyl)-piperidine-1-carbothioate]	3 (50 to 69%)

Same assay, conditions: 300 g/10a., 25 days

Structure (SMILES)	Herbicidal activity broad-leaf weeds
CC1CCCCN1C(=O)SCCCCCCCCCl (stereo not drawn) [Compound 4, S-(8-chlorooctyl)-(2-methyl)-piperidine-1-carbothioate]	4 (70 to 89%)
CC1CCCCN1C(=O)SCCCCCCCCCCCl (stereo not drawn) [Compound 5, S-(10-chlorodecyl)-(2-methyl)-piperidine-1-carbothioate]	4 (70 to 89%)

Same assay, conditions: 600 g/10a., 25 days

Structure (SMILES)	Herbicidal activity broad-leaf weeds
CC1CCCCN1C(=O)SCCCCCCCCCl (stereo not drawn) [Compound 4, S-(8-chlorooctyl)-(2-methyl)-piperidine-1-carbothioate]	5 (more than 90%)
CC1CCCCN1C(=O)SCCCCCCCCCCCl (stereo not drawn) [Compound 5, S-(10-chlorodecyl)-(2-methyl)-piperidine-1-carbothioate]	5 (more than 90%)

Tested on: Hotarui (Scirpus juncoides)
Assay: Experiment 2: herbicidal effects against Hotarui (pot test, granules)
Type: in vivo
Details: 150 g/10a., 25 days

Structure (SMILES)	Herbicidal activity Hotarui (Scirpus juncoides)
CC1CCCCN1C(=O)SCCCCCCCCCl (stereo not drawn) [Compound 4, S-(8-chlorooctyl)-(2-methyl)-piperidine-1-carbothioate]	2 (30 to 49%)

Same assay, conditions: 300 g/10a., 25 days

Structure (SMILES)	Herbicidal activity Hotarui (Scirpus juncoides)
CC1CCCCN1C(=O)SCCCCCCCCCl (stereo not drawn) [Compound 4, S-(8-chlorooctyl)-(2-methyl)-piperidine-1-carbothioate]	4 (70 to 89%)
CC1CCCCN1C(=O)SCCCCCCCCCCCl (stereo not drawn) [Compound 5, S-(10-chlorodecyl)-(2-methyl)-piperidine-1-carbothioate]	4 (70 to 89%)

Same assay, conditions: 600 g/10a., 25 days

Structure (SMILES)	Herbicidal activity Hotarui (Scirpus juncoides)
CC1CCCCN1C(=O)SCCCCCCCCCl (stereo not drawn) [Compound 4, S-(8-chlorooctyl)-(2-methyl)-piperidine-1-carbothioate]	5 (more than 90%)
CC1CCCCN1C(=O)SCCCCCCCCCCCl (stereo not drawn) [Compound 5, S-(10-chlorodecyl)-(2-methyl)-piperidine-1-carbothioate]	5 (more than 90%)

Tested on: Mizugayatsuri (Cyperus serotinus)
Assay: Experiment 2: herbicidal effects against Mizugayatsuri (pot test, granules)
Type: in vivo
Details: 150 g/10a., 25 days

Structure (SMILES)	Herbicidal activity Mizugayatsuri (Cyperus serotinus)
CC1CCCCN1C(=O)SCCCCCCCCCl (stereo not drawn) [Compound 4, S-(8-chlorooctyl)-(2-methyl)-piperidine-1-carbothioate]	2 (30 to 49%)

Same assay, conditions: 300 g/10a., 25 days

Structure (SMILES)	Herbicidal activity Mizugayatsuri (Cyperus serotinus)
CC1CCCCN1C(=O)SCCCCCCCCCl (stereo not drawn) [Compound 4, S-(8-chlorooctyl)-(2-methyl)-piperidine-1-carbothioate]	3 (50 to 69%)
CC1CCCCN1C(=O)SCCCCCCCCCCCl (stereo not drawn) [Compound 5, S-(10-chlorodecyl)-(2-methyl)-piperidine-1-carbothioate]	3 (50 to 69%)

Same assay, conditions: 600 g/10a., 25 days

Structure (SMILES)	Herbicidal activity Mizugayatsuri (Cyperus serotinus)
CC1CCCCN1C(=O)SCCCCCCCCCl (stereo not drawn) [Compound 4, S-(8-chlorooctyl)-(2-methyl)-piperidine-1-carbothioate]	5 (more than 90%)
CC1CCCCN1C(=O)SCCCCCCCCCCCl (stereo not drawn) [Compound 5, S-(10-chlorodecyl)-(2-methyl)-piperidine-1-carbothioate]	5 (more than 90%)

Tested on: not listed separately
Assay: Experiment 4: subacute toxicity to fish
Type: in vivo, 2-year-old carps
Details: carp, water; 0.2 ppm; 3 weeks; read-out: Survival rate after 3 weeks
Experimental: (§1) With respect to the compounds according to the present invention and the comparative compounds listed in Table 4, there were conducted tests on subacute toxicity to 2-year-old carps having an average weight of 20 g.
(§2) Ten 2-year-old carps were released in each of 25-liter water tanks equipped with an air-blowing apparatus and acclimatized to the surroundings while feeding for 10 days. Water in each of the water tanks was continuously replaced with fresh water so that the residence time of water in the water tanks is 6 hours. Each test compound was added to a predetermined quantity of supply water to prepare a 0.2 ppm aqueous solution of each compound, and each of the aqueous solutions was continuously added to the water in the tank. After three weeks, the hematocrit values of all the survival carps were determined. The hematocrit value used herein is intended to mean a volume percentage of erythrocyte contained in the blood.

Structure (SMILES)	survival at 504 h
CC1CCC(C)CN(C(=O)SCCCCCCCl)C1 (stereo not drawn) [Compound 8, S-(6-chlorohexyl)-3,6-dimethyl-hexahydro-1H-azepine-1-carbothioate]	100%

Tested on: carps
Assay: Experiment 4: subacute toxicity to fish
Type: in vivo, 2-year-old carps
Details: 0.2 ppm; 3 weeks
Experimental: as §1, §2

Structure (SMILES)	Average Hematocrit Value of survival fish
CC1CCC(C)CN(C(=O)SCCCCCCCl)C1 (stereo not drawn) [Compound 8, S-(6-chlorohexyl)-3,6-dimethyl-hexahydro-1H-azepine-1-carbothioate]	35%
